Test results taken from patent US8552176B2 (priority 2010, dated 2013).

Legend:
Test in all cases: cells
Format in all cases: cell-based, human
[1] = test system: DU-145; conditions: read-out: GI50 DU-145 prostate
[2] = test system: Hep3b; conditions: read-out: GI50 Hep3b liver
[3] = test system: SF-268; conditions: read-out: GI50 SF-268 CNS
[4] = test system: HT29; conditions: read-out: GI50 HT29 colorectal
[5] = test system: MCF7; conditions: read-out: GI50 MCF7 breast
[6] = test system: SKOV3; conditions: read-out: GI50 SKOV3 ovary
[7] = test system: H1299; conditions: read-out: GI50 H1299 lung (−p53)
[8] = test system: HCT-15; conditions: read-out: GI50 HCT-15 colorectal
[9] = test system: A549; conditions: read-out: GI50 A549 lung (+p53)
[10] = test system: NCI-H460; conditions: read-out: GI50 NCI-H460 lung

| SMILES | GI50 [1] | GI50 [2] | GI50 [3] | GI50 [4] | GI50 [5] | GI50 [6] | GI50 [7] | GI50 [8] | GI50 [9] | GI50 [10] |
| --- | --- | --- | --- | --- | --- | --- | --- | --- | --- | --- |
| CON(CCCCc1ccc(N(CCCl)CCCl)cc1)C1OC(CO)C(O)C(O)C1O (mixture of isomers) [Compound 40] | 4.8 ± 0.1 µM | 3.9 ± 0.2 µM | 2 ± 0.1 µM | 2.9 ± 0.1 µM | 3.2 ± 0.3 µM | 2.5 ± 0.1 µM | 0.55 ± 0.05 µM | 0.88 ± 0.07 µM | 3.3 ± 0.2 µM | 8 ± 0.7 µM |
| CON(CCCCc1ccc(N(CCCl)CCCl)cc1)C1OCC(O)C(O)C1O (mixture of isomers) [Compound 41] | 3.6 ± 0.1 µM | 2.5 ± 0.1 µM | 1.6 ± 0.1 µM | 2 ± 0.1 µM | 1 ± 0.2 µM | 1.8 ± 0.1 µM | 0.76 ± 0.05 µM | 0.79 ± 0.05 µM | 2.3 ± 0.1 µM | 5.2 ± 0.4 µM |
| CON(CCCCc1ccc(N(CCCl)CCCl)cc1)C1OCC(O)C(O)C1O (mixture of isomers) [Compound 42] | 3.9 ± 0.1 µM | 3 ± 0.1 µM | 1.2 ± 0.1 µM | 2.4 ± 0.1 µM | 0.94 ± 0.2 µM | 1.8 ± 0.1 µM | 0.88 ± 0.04 µM | 0.95 ± 0.08 µM | 2.2 ± 0.1 µM | 5.8 ± 0.1 µM |
| CON(CCCCc1ccc(N(CCCl)CCCl)cc1)C1OC(CO)C(O)C(O)C1O (mixture of isomers) [Compound 43] | 5.1 ± 0.2 µM | 3.2 ± 0.2 µM | 1.8 ± 0.1 µM | 2.6 ± 0.2 µM | 1.9 ± 0.1 µM | 2.3 ± 0.1 µM | 1.01 ± 0.07 µM | 1.9 ± 0.2 µM | 3.5 ± 0.2 µM | 7.8 ± 0.7 µM |
| CON(CCCCc1ccc(N(CCCl)CCCl)cc1)C1OC(CO)C(O)C(O)C1O (mixture of isomers) [Compound 44] | 4.9 ± 0.1 µM | 3.7 ± 0.2 µM | 2 ± 0.1 µM | 3.4 ± 0.2 µM | 2.2 ± 0.2 µM | 2.9 ± 0.1 µM | 1.2 ± 0.1 µM | 2.2 ± 0.1 µM | 4.1 ± 0.2 µM | 9.8 ± 0.9 µM |
| CON(CCCCc1ccc(N(CCCl)CCCl)cc1)C1OC(CO)C(O)C(O)C1NC(C)=O (mixture of isomers) [Compound 45] | 16 ± 1 µM | 9.8 ± 0.7 µM | 3.4 ± 0.2 µM | 8.7 ± 0.7 µM | 9 ± 1 µM | 10.1 ± 0.9 µM | 2.7 ± 0.2 µM | 22 ± 2 µM | 21 ± 2 µM | 33.3 ± 0.5 µM |
| CON(CCCCc1ccc(N(CCCl)CCCl)cc1)C1OC(C)C(O)C(O)C1O (mixture of isomers) [Compound 51] | 4.2 ± 0.1 µM | 2.6 ± 0.1 µM | 1.9 ± 0.1 µM | 2.4 ± 0.1 µM | 2.2 ± 0.2 µM | 2 ± 0.1 µM | 3.7 ± 0.3 µM | 2 ± 0.1 µM | 2.5 ± 0.1 µM | 5.3 ± 0.4 µM |
| CON(CCCCc1ccc(N(CCCl)CCCl)cc1)C1CC(O)C(O)CO1 (mixture of isomers) [Compound 55] | 4 ± 0.1 µM | 2.6 ± 0.1 µM | 2.1 ± 0.1 µM | 2.6 ± 0.1 µM | 0.96 ± 0.02 µM | 2 ± 0.1 µM | 3.7 ± 0.2 µM | 2.3 ± 0.1 µM | 2.6 ± 0.2 µM | 5.8 ± 0.6 µM |
| CON(CCCCc1ccc(N(CCCl)CCCl)cc1)C1CC(O)C(O)CO1 (mixture of isomers) [Compound 56] | 3.3 ± 0.1 µM | 2.5 ± 0.1 µM | 2 ± 0.1 µM | 2.3 ± 0.1 µM | 1.3 ± 0.2 µM | 2.2 ± 0.1 µM | 3.9 ± 0.5 µM | 2.2 ± 0.1 µM | 2.5 ± 0.1 µM | 5.2 ± 0.6 µM |
| CC(=O)OC1COC(N(CCCCc2ccc(N(CCCl)CCCl)cc2)OC(C)=O)C(OC(C)=O)C1OC(C)=O (mixture of isomers) [Compound 69, N-Acetoxy-4-(4-N′,N′-bis(2-chloroethyl)amino)phenylbutylamino-D-riboside peracetate] | > 5 µM | > 5 µM | 1.6 ± 0.1 µM | 0.96 ± 0.07 µM | 4.6 ± 0.3 µM | 0.53 ± 0.01 µM | 1.05 ± 0.05 µM | 1.1 ± 0.1 µM | 1.12 ± 0.07 µM | 1.3 ± 0.1 µM |
| O=C(CCCc1ccc(N(CCCl)CCCl)cc1)NN=CC(O)C(O)CO (mixture of isomers) [Compound 74, 4-(4-N′,N′-bis(2-chloroethyl)amino)phenylbutylhydrazido-D-threoside inline] | 9.5 ± 0.7 µM | 4.1 ± 0.4 µM | 2.6 ± 0.2 µM | 4.8 ± 0.1 µM | 4.2 ± 0.2 µM | 6.2 ± 0.6 µM | 2.6 ± 0.2 µM | 7.3 ± 0.4 µM | 7.5 ± 0.5 µM | 10.8 ± 0.8 µM |
| CON(CCCCc1ccc(N(CCCl)CCCl)cc1)C1OC(COCc2ccccc2)C(OCc2ccccc2)C1OCc1ccccc1 (stereo not drawn) [Compound 16] | > 100 µM | > 100 µM | 80 ± 5 µM | 47 ± 1 µM | 82 ± 1 µM | > 100 µM | > 100 µM | 64 ± 8 µM | > 100 µM | > 100 µM |
| CON(CCCCc1ccc(N(CCCl)CCCl)cc1)C1OCC(O)C1O (stereo not drawn) [Compound 19] | 5 ± 0.7 µM | 4.1 ± 0.9 µM | 2.4 ± 0.8 µM | 1.6 ± 0.1 µM | 8 ± 0.1 µM | 2.6 ± 0.9 µM | 1.1 ± 0.1 µM | 0.77 ± 0.09 µM | 3.1 ± 0.8 µM | 7.8 ± 0.9 µM |
| CON(CCCCc1ccc(N(CCCl)CCCl)cc1)C1OC(CO)C(O)C(O)C1O (stereo not drawn) [Compound 28] | 5.5 ± 0.2 µM | 3.4 ± 0.1 µM | 1.8 ± 0.1 µM | 2.9 ± 0.4 µM | 1.5 ± 0.1 µM | 3 ± 0.1 µM | 1.4 ± 0.1 µM | 2.8 ± 0.2 µM | 4.5 ± 0.2 µM | 12.3 ± 0.7 µM |
| CON(CCCCc1ccc(N(CCCl)CCCl)cc1)C1OC(CO)C(O)C(O)C1O (stereo not drawn) [Compound 29] | 7 ± 0.5 µM | 5 ± 0.6 µM | 2.2 ± 0.1 µM | 4.6 ± 0.4 µM | 1.8 ± 0.2 µM | 4.5 ± 0.6 µM | 1.6 ± 0.1 µM | 2.8 ± 0.2 µM | 6.8 ± 0.8 µM | 14.3 ± 0.9 µM |
| CON(CCCCc1ccc(N(CCCl)CCCl)cc1)C1CC(O)C(O)C(CO)O1 (stereo not drawn) [Compound 30] | 4.3 ± 0.3 µM | 3.7 ± 0.3 µM | 2.5 ± 0.5 µM | 1.2 ± 0.2 µM | 5.4 ± 0.1 µM | 1.12 ± 0.1 µM | 0.58 ± 0.06 µM | 0.7 ± 0.05 µM | 3.1 ± 0.5 µM | 5.4 ± 0.6 µM |
| CON(CCCCc1ccc(N(CCCl)CCCl)cc1)C1OC(CO)C(O)C(O)C1F (stereo not drawn) [Compound 31] | 4.2 ± 0.1 µM | 3.2 ± 0.1 µM | 2.2 ± 0.1 µM | 2.4 ± 0.2 µM | 7.3 ± 0.1 µM | 2 ± 0.1 µM | 1.2 ± 0.1 µM | 1.08 ± 0.04 µM | 2.6 ± 0.1 µM | 6.4 ± 0.07 µM |
| CON(CCCCc1ccc(N(CCCl)CCCl)cc1)C1OC(CO)C(O)C(F)C1O (stereo not drawn) [Compound 32] | 4.1 ± 0.1 µM | 3.2 ± 0.1 µM | 2.2 ± 0.1 µM | 2.6 ± 0.2 µM | 7 ± 0.8 µM | 2.2 ± 0.1 µM | 1.3 ± 0.1 µM | 1.2 ± 0.1 µM | 3 ± 0.1 µM | 7.1 ± 0.9 µM |
